Starred links: 1 amine or outer side, 2 acyl side, 3 side chain; linkers in the order of their positions; H or OH if unused. Positions of bridges follow the written chain, without caps; N, C: chain ends. Non-standard residues stand in square brackets, D forms with d. Residues, ends and D or L forms follow the SMILES beside them. Chains are numbered I, II in the order given. Actinocin(9to1) = Cc1c2oc3c(C)ccc(C(=O)[*:1])c3nc-2c(C(=O)[*:2])c(N)c1=O; NMeV = CN[C@H](C(=O)O)C(C)C; Sar = CNCC(=O)O

The record followed here is patent US20040029244A1, “Phospholipase d effectors for therapy and screening” (priority 2003, published 2004).

Holding throughout (type): cell-based, human
Test [1] concerns MMP-9 secretion from HT 1080 cells. In words: MMP-9 secretion and activity assay (zymogram gels of cell medium). To be noted: for MMP-9 secretion in response to various PMA concentrations at 133 mM alcohol: 133 mM alcohol 45 min before PMA, FIG. 4B; for effect on PMA-induced MMP-9 secretion at 200 mM alcohol: 200 mM alcohol 45 min before 100 nM PMA. How it is done:
FIG. 4. […] Overnight serum-deprived cells were incubated in freshly added DMEM, 0.1% BSA. A, the indicated concentrations of either 2-propanol or 1-propanol were then added. After 45 min, 100 nM PMA-was added and cells were incubated for 7.5 h after which media samples (5 ? l) were analyzed for MMP-9 secretion. B, the cells were incubated with 133 mM 2-propanol or 1-propanol for 45 min. PMAa was then introduced to give the indicated concentrations. The cells were incubated for 7.5 h after which 5 ? l media samples were analyzed for MMP-9 secretion. The data shown are representative of three independent experiments. […]
MMP-9 secretion and activity assay Before assay, the cell medium was replaced with fresh DMEM, 0.1% BSA containing, unless otherwise described, 100 nM PMA. In experiments involving inhibition with BFA, it was added 30 min before induction with PMA. Medium samples were collected after 7.5 h and loaded with non-reducing sample buffer (2% SDS, 10% glycerol in 62.5 mM Tris pH 6.8) on zymogram gels. Before developing, gels were rinsed for 30 min in renaturing buffer and then 30 min in developing buffer at room temperature. Gels were incubated in fresh developing buffer for 18 h at 37° C. MMP-9 activity was indicated by the clear 92 kDa band that appeared after staining with Coomassie brilliant blue and removing excess dye by an 18 h rinse in water. Gels were dried and scanned and then the image was inverted (clear to black and black to clear).

In test [2] the test system is MMP-9 expression in HT 1080 cells. In words: Cell lysis and immunoblotting with rabbit anti MMP-9. Conditions: 7.5 h. The method, then:
FIG. 6. Phophatidic acid mediates protein kinase C induction of MMP-9 expression. A, Overnight serum-deprived cells were incubated in freshly added DMEM, 0.1% BSA containing either 100 nM PMA or 80 ? g/ml DDPA. B. Overnight serum-deprived cells were incubated in freshly added DMEM, 0.1% BSA containing 0.5% of either 1-propanol or 2-propanol for control. Following 7.5 h incubation cells were lysed with RIPA buffer and 15 ? g whole cell lysate were subjected to SDS-PAGE and immunoblotting with rabbit anti MMP-9. Immunoreactive bands were visualized using the ECL reaction. The data shown are representative of three independent experiments.
Cell lysis and immunoblotting Overnight serum-deprived cells in 60 mm plates were washed with PBS and then lysed with 750 μl RIPA^− buffer (1% NP-40, 0.1% SDS, 100 mM NaF, 10 mM Na pyrophosphate, 2.5 mM Na3VO4 in PBS). RIPA^− soluble fraction was separated from the non-solube fraction by 15 min centrifugation in a bench top microcentrifuge at 14,000 rpm at 4° C. Protein samples (15 μg) were analyzed after SDS-polyacrylamide gel electrophoresis (SDS-PAGE) by immunoblotting with rabbit anti MMP-9 or anti actin diluted according to manufacturer instructions in PBS, 0.5% Tween 20 and 5% dry milk powder and with horseradish peroxidase-labeled secondary antibody. Immunoreactive bands were visualized by the enhanced chemiluminescence (ECL) reaction.
In general terms: A western blot detects proteins with antibodies after separation by electrophoresis.

In a further test the test system is PLD in HT 1080 cells. In words: In vivo PLD assay ([3H]phosphatidylbutanol formation in labeled cells). How it is done:
FIG. 2. Activation of PLD in PMA-treated HT 1080 cells. The cells, at their log phase of growth, were serum deprived and labeled with […] [^3H]myristic acid. Following washing and preincubation with DMEM, 0.1% BSA, 0.3% 1-butanol for 20 min, and 100 nM PMA were added, and cells were incubated for the indicated times at 37° C. Lipids were extracted and analyzed, and the production of labelled phosphatidylbutanol ([^3H]PtdBut) was measured as described under “Materials and Methods”. The values obtained for [^3H]PtdBut were normalized by dividing the measured counts/min by counts/min in the total lipid fraction. Data are expressed as the mean±S.E. of the fold activation in three independent experiments performed in triplicates.
In vivo PLD assay Serum-deprived cells were labeled for 18 h with 1 μCi/ml [^3H]myristic acid and were washed with DMEM, 0.1% BSA. Following 20 min preincubation in DMEM, 0.1% BSA, 0.3% 1-butanol, the cells were stimulated with, unless otherwise described, 100 nM PMA for 20 min. Cells were washed with phosphate saline buffer (PBS) (2.68 mM KC1, 1.47 mM KH2PO4, 8.05 mM Na2PO4, 137 mM NaC1), 0.1% BSA, scraped with 1 ml ice cold CH3OH and transferred into glass tubes. CHC13 and 0.1 N HC1 were added to a final ratio of 1:1:1. The lipid-containing lower phase was collected, dried and dissolved in 30 μl CH3OH, CHC13 (1:1). The samples were loaded on a TLC plate which was developed in the lower phase of H2O, ethylacetate, acetic acid and iso-octane (100:110:20:50 respectively). Tritiated phosphatidylbutanol (PdtBut) was measured after scraping the band corresponding to the PtdBut standard (Avanti Polar Lipids).

As for `Cc1c2oc3c(C)ccc(C(=O)N[C@@H]4C(=O)N[C@H](C(C)C)C(=O)N5CCC[C@H]5C(=O)N(C)CC(=O)N(C)[C@@H](C(C)C)C(=O)O[C@@H]4C)c3nc-2c(C(=O)N[C@@H]2C(=O)N[C@H](C(C)C)C(=O)N3CCC[C@H]3C(=O)N(C)CC(=O)N(C)[C@@H](C(C)C)C(=O)O[C@@H]2C)c(N)c1=O` [ActD, actinomycin D] (I: T[dV]P[Sar][NMeV] / II: T[dV]P[Sar][NMeV]; ester I:1-I:C, II:1-II:C; linker I:N-II:N via Actinocin(9to1)), in test [1] (10 μg/ml ActD 45 min, then 80 μg/ml DDPA, 7.5 h, FIG. 5), the “effect on MMP-9 secretion induced with phosphatidic acid” value is listed as “fully decreased”.

phosphatidic acid [PA]: in test [2] (HT 1080 cells, 80 μg/ml DDPA, FIG. 6A), the “induction of MMP-9 expression (immunoblot)” value was “induces de novo MMP-9 expression”.

For `CCCCCCCCCCCCCC(=O)O[C@@H]1[C@@H](C)[C@@]2(O)[C@@H](C=C(CO)C[C@]3(O)C(=O)C(C)=C[C@@H]23)[C@@H]2C(C)(C)[C@]12OC(C)=O` [PMA, phorbol 12-myristate 13-acetate], in test [1] (HT 1080 cells, 100 nM PMA, various times up to 7.5 h), the “MMP-9 activity accumulating in the medium of treated cells” value is given as “time-dependent manner”. The “lowest concentrations at which MMP-9 secretion is detected” value in test [1] (HT 1080 cells, 7.5 h, FIG. 1B) lay within 0.5 to 1 nM. The “time at which PtdBut formation (PLD activity) reaches a maximum” value with PLD in HT 1080 cells (100 nM PMA, 0.3% 1-butanol, FIG. 2) came out at 90 min. Further, in the test on PLD in HT 1080 cells (HT 1080 cells, data not shown), the “concentration at which the PLD response is detectable” value was determined as 1 nM and the “concentration at which the PLD response is maximal” value is 100 nM.

With `CCCO` [1-propanol], the “MMP-9 expression in PMA-treated cells (immunoblot)” value in test [2] (0.5% alcohol pretreatment, PMA, whole cell lysate, FIG. 6) is on record as “suppressed”. Further, in test [1] (100 mM alcohol 45 min before 100 nM PMA, 7.5 h, FIG. 4A), the “effect on PMA-induced MMP-9 secretion at 100 mM alcohol” value is reported as “inhibited”. In test [1] (7.5 h), the “MMP-9 secretion in response to various PMA concentrations at 133 mM alcohol” value is “almost totally suppressed”. Besides, the “effect on PMA-induced MMP-9 secretion at 200 mM alcohol” value in test [1] (7.5 h, FIG. 4A) is “almost absolute suppression”.

As to `CC(C)O` [2-propanol], the “MMP-9 secretion in response to various PMA concentrations at 133 mM alcohol” value in test [1] (7.5 h) is recorded as “continues to be dose-dependent”. Further, in test [1] (7.5 h, FIG. 4A), the “effect on PMA-induced MMP-9 secretion at 200 mM alcohol” value was “inhibitory”.

Take diodecanoylphosphatidic acid [DDPA]: in test [1] (HT 1080 cells, various concentrations, 7.5 h, FIG. 3), the “induction of MMP-9 secretion” value is reported as “induces MMP-9 secretion in a dose-dependent manner”.

As to `Cn1cc(C2=C(c3cn(CCCSC(=N)N)c4ccccc34)C(=O)NC2=O)c2ccccc21` [Ro 31-8220], in test [1] (5 μM inhibitor preincubated 1 h, then 100 nM PMA, 7.5 h, FIG. 1C), the “effect on PMA-induced MMP-9 secretion” value is reported as “inhibition of secretion”.
